± gives the expanded uncertainty stated by the source.
Settings: Crystal 2; DSC

**Q.** Which Triple point temperature does the source give for `COC(=O)[C@H](c1ccccc1Cl)N1CCc2sccc2C1.O=S(=O)(O)O` [(S)-(+)-Clopidogrel hydrogen sulfate] here?
**A.** 449.15 ± 1 K

— the NIST ThermoML archive (doi:10.1021/je100022w)
